In one series the target is T1, human H3 receptor (Homo sapiens, UniProt Q9Y5N1).
T1 construct: expressed in transfected cells
In words: Human H3 radioligand binding ([3H]-N-alpha-methylhistamine, SPA). A digest of the protocol: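 Compounds (0.01 nM-30 μM) competed with approximately 1 nM [3H]-N-alpha-methylhistamine for human H3 receptor in membranes of stably transfected CHO cells, 10 μg protein per well, in Tris-HCl pH 7.4/MgCl2/BSA buffer for 4 h at room temperature. Bound radioligand measured by scintillation proximity; 10 μM clobenpropit gave non-specific binding.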

Series [1] concerns the target T2, rat histamine H3 receptor (Rattus norvegicus, UniProt Q9QYN8).
T2 construct: encoding the entire 445-amino-acid rat histamine H3 receptor; expressed in transfected cells; membrane preparation
In words: Rat H3 radioligand binding ([3H]-N-alpha-methylhistamine, SPA). The method in brief:
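SPA-bead binding assay using [3H]-N-alpha-methylhistamine (approximately 1 nM final) with test compounds from 0.01 nM to 30 μM. Rat H3 receptor membranes came from stably transfected CHO-A3 cells; incubation ran 4 h at room temperature, in the dark, in Tris pH 7.4 buffer with MgCl2 and BSA. Clobenpropit (10 μM) gave non-specific binding.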

The mark [2] stands for this setting: Human H3 binding, Table B, Examples 136-362, read-out: hum H3 binding Ki.
Setting [3] is: Rat H3 binding, Table B, Examples 136-362, read-out: rat H3 binding Ki.
[4] abbreviates: human H3 binding, Table D, read-out: Human H3 Ki.
Setting [5] is: rat H3 binding, Table D, read-out: Rat H3 Ki.
The mark [6] stands for this setting: Table C, human H3 binding, read-out: Human H3 Ki.
The mark [7] stands for this setting: Table C, rat H3 binding, read-out: Rat H3 Ki.
[8] abbreviates: Table A, human H3 binding, read-out: Human Ki.
Setting [9] is: Table A, rat H3 binding, read-out: Rat Ki.

pKi: −log10 of the molar value. Where two headings read alike, the source gives them in different places.

T2 sequence (Q9QYN8 whole entry): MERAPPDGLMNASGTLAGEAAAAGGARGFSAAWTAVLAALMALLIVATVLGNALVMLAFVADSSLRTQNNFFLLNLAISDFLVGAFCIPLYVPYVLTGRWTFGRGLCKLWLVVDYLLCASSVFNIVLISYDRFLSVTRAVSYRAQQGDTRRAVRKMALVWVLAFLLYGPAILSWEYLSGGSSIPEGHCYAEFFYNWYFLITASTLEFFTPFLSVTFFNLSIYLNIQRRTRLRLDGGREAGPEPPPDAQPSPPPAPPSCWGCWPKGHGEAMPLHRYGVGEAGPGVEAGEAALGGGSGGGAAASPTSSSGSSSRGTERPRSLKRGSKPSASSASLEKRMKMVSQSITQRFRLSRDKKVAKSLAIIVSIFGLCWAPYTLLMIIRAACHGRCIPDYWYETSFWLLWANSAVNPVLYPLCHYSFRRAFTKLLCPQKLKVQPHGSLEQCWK
T1 sequence (Q9Y5N1 whole entry): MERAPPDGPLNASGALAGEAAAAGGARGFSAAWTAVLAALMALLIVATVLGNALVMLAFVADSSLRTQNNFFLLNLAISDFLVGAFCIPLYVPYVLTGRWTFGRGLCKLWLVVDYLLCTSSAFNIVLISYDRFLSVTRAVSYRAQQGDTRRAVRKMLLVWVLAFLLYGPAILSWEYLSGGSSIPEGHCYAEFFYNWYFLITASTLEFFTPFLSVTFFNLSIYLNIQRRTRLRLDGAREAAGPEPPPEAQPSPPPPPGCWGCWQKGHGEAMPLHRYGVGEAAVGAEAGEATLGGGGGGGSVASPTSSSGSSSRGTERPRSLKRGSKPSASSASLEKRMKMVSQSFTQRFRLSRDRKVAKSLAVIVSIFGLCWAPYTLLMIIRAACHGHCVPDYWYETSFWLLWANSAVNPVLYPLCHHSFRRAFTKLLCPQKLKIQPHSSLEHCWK

A word on the pKi: it is the negative decadic logarithm of the Ki, by convention in mol/L. The melting point is the temperature, or range, at which the solid turns liquid. The compound `O=C(Nc1ccc2c(c1)COC1(CCN(C3CCC3)CC1)O2)c1ccnc(N2CCCC2)c1` [Example 309] came in with a melting point of 234 to 236 °C. Further, the negative logarithm of the Ki (pKi) at human H3 receptor (setting [2]) was greater than 6.70. Moreover, the negative logarithm of the Ki (pKi) in series [1] (setting [3]) is greater than 6.70.

`CN(C)C(=O)c1cccc(COc2ccc3c(c2)CCC2(CCN(C4CCC4)CC2)O3)n1` [Example 670] showed a melting point of 167 to 170 °C. At human H3 receptor (setting [4]), the pKi is greater than 6.70. Further, the negative-log Ki (pKi) in series [1] (setting [5]) was greater than 6.70.

`COCCNC(=O)c1ccc(Oc2ccc3c(c2)CCC2(CCN(C4CCC4)CC2)O3)nc1` [Example 416] displayed a melting point of 235 to 237 °C. Moreover, the negative-log Ki (pKi) at human H3 receptor (setting [6]) was greater than 6.70. Also, the negative-log Ki (pKi) in series [1] (setting [7]) is greater than 6.70.

The compound `COCc1cc(=O)[nH]cc1-c1ccc2c(c1)COC1(CCN(C3CCC3)CC1)O2` [Example 798] came in with a melting point of 217 to 219 °C. In addition, the negative logarithm of the Ki (pKi) at human H3 receptor (setting [4]) is greater than 6.70. Moreover, in series [1] (setting [5]), the negative-log Ki (pKi) was greater than 6.70.

Compound `CN(C)C(=O)c1cnc(COc2ccc3c(c2)CCC2(CCN(C4CCC4)CC2)O3)cn1` [Example 619] showed a melting point of 120 to 123 °C. Besides, on human H3 receptor (setting [4]), the pKi is greater than 6.70. Further, in series [1] (setting [5]), the negative logarithm of the Ki (pKi) is greater than 6.70.

Take `O=C1C[C@@H](O)CN1c1ccc2c(c1)COC1(CCN(C3CCC3)CC1)O2` [Example 139]: the melting point fell in the range of 120 to 122 °C. The negative logarithm of the Ki (pKi) on human H3 receptor (setting [2]) was greater than 6.70. In addition, the negative-log Ki (pKi) in series [1] (setting [3]) was greater than 6.70.

Compound `COCCNC(=O)c1cc(-c2ccc3c(c2)COC2(CCN(C4CCC4)CC2)O3)cs1` [Example 578] displayed a melting point of 145 to 146 °C. Besides, the pKi on human H3 receptor (setting [4]) is greater than 6.70. The pKi in series [1] (setting [5]) was greater than 6.70.

In turn, `O=C(C1CCN(c2ccc3c(c2)CCC2(CCN(C4CCC4)CC2)O3)CC1)N1CCOCC1` [Example 434] gave a melting point of 165 to 167 °C. Further, the negative logarithm of the Ki (pKi) at human H3 receptor (setting [6]) was greater than 6.70. In series [1] (setting [7]), the negative logarithm of the Ki (pKi) is greater than 6.70.

The compound `CC(=O)N(c1ccc2c(c1)COC1(CCN(C3CCC3)CC1)O2)c1ccccn1` [Example 253] had a melting point of 53 to 55 °C. In addition, at human H3 receptor (setting [2]), the negative-log Ki (pKi) was greater than 6.70. In addition, in series [1] (setting [3]), the negative logarithm of the Ki (pKi) is greater than 6.70.

`O=C(c1ccc(Nc2ccc3c(c2)COC2(CCN(C4CCC4)CC2)O3)cc1)N1CCOCC1` [Example 172]: the melting point fell in the range of 79 to 84 °C. For the same compound, the negative logarithm of the Ki (pKi) on human H3 receptor (setting [2]) is greater than 6.70. For the same compound, the negative-log Ki (pKi) in series [1] (setting [3]) was greater than 6.70.

In the case of `OC1(c2ccc3c(c2)COC2(CCN(C4CCC4)CC2)O3)CCSC1` (stereo not drawn) [Example 471], the melting point was in the range of 125 to 126 °C. Also, at human H3 receptor (read-out: Human H3 Ki), the pKi was greater than 6.70. For the same compound, the pKi in series [1] (read-out: Rat H3 kI) was greater than 6.70.

The compound `CNC(=O)c1ccc(-c2ccc3c(c2)CC2(CCN(C4CCC4)CC2)O3)cc1` [Example 134, 1′-Cyclobutyl-spirobenzofuran-2(3H)-4′-piperidine-(5-(4-methylaminocarbamoylphenyl))] yielded a melting point of 197 to 198 °C. Besides, the negative-log Ki (pKi) at human H3 receptor (setting [8]) is greater than 6.70. For the same compound, in series [1] (setting [9]), the pKi was greater than 6.70.

For `O=c1[nH]cc(-c2ccc3c(c2)COC2(CCN(C4CCC4)CC2)O3)cc1Cl` [Example 658], the melting point lay in the range of 221.5 to 223.7 °C. Also, the negative logarithm of the Ki (pKi) on human H3 receptor (setting [4]) is greater than 6.70. Further, the pKi in series [1] (setting [5]) was greater than 6.70.

`Cc1cc(C(=O)Nc2ccc3c(c2)COC2(CCN(C4CCC4)CC2)O3)ccn1` [Example 315] yielded a melting point of 184 to 185 °C. Further, on human H3 receptor (setting [2]), the pKi is greater than 6.70. Also, the negative-log Ki (pKi) in series [1] (setting [3]) is greater than 6.70.

On to `Nc1ccc2c(c1)COC1(CCN(C3CCC3)CC1)O2` [Example 350], for which the melting point was in the range of 160 to 162 °C. Further, the pKi on human H3 receptor (setting [2]) was 6.00 to 6.70. Also, the negative logarithm of the Ki (pKi) in series [1] (setting [3]) was 6.00 to 6.70.

`OC1(c2ccc3c(c2)COC2(CCN(C4CCC4)CC2)O3)CCCC1` [Example 509] returned a melting point of 149 to 151 °C. The pKi at human H3 receptor (read-out: Human H3 Ki) was greater than 6.70. The pKi in series [1] (read-out: Rat H3 kI) was greater than 6.70.

For `O=C(Nc1ccc2c(c1)COC1(CCN(C3CCC3)CC1)O2)c1ccc2ncsc2c1` [Example 316], the melting point was in the range of 232 to 234 °C. Moreover, the negative-log Ki (pKi) at human H3 receptor (setting [2]) is greater than 6.70. In series [1] (setting [3]), the negative-log Ki (pKi) was greater than 6.70.

In the case of `O=C(C1CC1)N1CCC(COc2ccc3c(c2)CCC2(CCN(C4CCC4)CC2)O3)CC1` [Example 358], the melting point was in the range of 128 to 130 °C. Further, the pKi at human H3 receptor (setting [2]) is greater than 6.70. Further, in series [1] (setting [3]), the pKi was greater than 6.70.

Consider `N#Cc1cnc(Nc2ccc3c(c2)COC2(CCN(C4CCC4)CC2)O3)s1` [Example 128], for which the melting point is 217 to 218 °C. Moreover, the pKi at human H3 receptor (setting [8]) was greater than 6.70. Further, the pKi in series [1] (setting [9]) is greater than 6.70.

`Cc1cc(C(=O)Nc2ccc3c(c2)COC2(CCN(C4CCC4)CC2)O3)cc(Cl)n1` [Example 196] yielded a melting point of 179 to 180 °C. Further, the negative-log Ki (pKi) at human H3 receptor (setting [2]) was greater than 6.70. In addition, in series [1] (setting [3]), the negative-log Ki (pKi) was greater than 6.70.

Compound `c1cc(Nc2ccc3c(c2)COC2(CCN(C4CCC4)CC2)O3)ncn1` [Example 129] displayed a melting point of 170 to 171 °C. At human H3 receptor (setting [8]), the negative logarithm of the Ki (pKi) was greater than 6.70. The negative logarithm of the Ki (pKi) in series [1] (setting [9]) is greater than 6.70.

`CNc1cc(C(=O)Nc2ccc3c(c2)COC2(CCN(C4CCC4)CC2)O3)ccn1` [Example 323] returned a melting point of 207 to 208 °C. The pKi on human H3 receptor (setting [2]) was greater than 6.70. In series [1] (setting [3]), the pKi is greater than 6.70.

`O=C(NCCO)c1ccc(-c2ccc3c(c2)CCC2(CCN(C4CCC4)CC2)O3)cc1F` [Example 147]: the melting point fell in the range of 215 to 217 °C. In addition, on human H3 receptor (setting [2]), the pKi was greater than 6.70. The negative logarithm of the Ki (pKi) in series [1] (setting [3]) was greater than 6.70.

The compound `CC(C)Cn1cc(-c2ccc3c(c2)CCC2(CCN(C4CCC4)CC2)O3)cn1` [Example 187] came in with a melting point of 106 to 108 °C. Also, the negative logarithm of the Ki (pKi) on human H3 receptor (setting [2]) is greater than 6.70. In addition, in series [1] (setting [3]), the pKi was greater than 6.70.

Compound `CC(C)(O)CNC(=O)c1ccc(-c2ccc3c(c2)COC2(CCN(C4CCC4)CC2)O3)cc1` [Example 155] yielded a melting point of 156 to 158 °C. Also, on human H3 receptor (setting [2]), the negative logarithm of the Ki (pKi) was greater than 6.70. In addition, in series [1] (setting [3]), the negative-log Ki (pKi) was greater than 6.70.

`Cc1c(-c2ccc(=O)[nH]c2)ccc2c1COC1(CCN(C3CCC3)CC1)O2` [Example 552] showed a melting point of 246 to 249 °C. Further, at human H3 receptor (read-out: Human H3 Ki), the negative logarithm of the Ki (pKi) was greater than 6.70. Further, the pKi in series [1] (read-out: Rat H3 kI) is greater than 6.70.

In turn, `O=C(Nc1ccccc1)N1CCN(c2ccc3c(c2)COC2(CCN(C4CCC4)CC2)O3)CC1` [Example 276] had a melting point of 194.6 to 195.8 °C. In addition, the pKi at human H3 receptor (setting [2]) is greater than 6.70. In series [1] (setting [3]), the pKi is greater than 6.70.

`CNC(=O)c1ccc(-c2ccc3c(c2)CCC2(CCN(C4CCC4)CC2)O3)cc1C` [Example 237] came in with a melting point of 94.7 to 95.6 °C. Besides, on human H3 receptor (setting [2]), the negative logarithm of the Ki (pKi) was greater than 6.70. Moreover, the negative-log Ki (pKi) in series [1] (setting [3]) was greater than 6.70.

Turning to `O=C(O)C1CCCN(c2ccc3c(c2)COC2(CCN(C4CCC4)CC2)O3)C1` (stereo not drawn) [Example 614], the melting point fell in the range of 84 to 86.4 °C. Also, the negative-log Ki (pKi) at human H3 receptor (setting [4]) was 6.00 to 6.70. Besides, the pKi in series [1] (setting [5]) was 6.00 to 6.70.

As for `Cc1cc(-c2ccc3c(c2)COC2(CCN(C4CCC4)CC2)O3)cnc1O` [Example 609], the melting point was 95.2 to 97 °C. For the same compound, the negative-log Ki (pKi) at human H3 receptor (setting [4]) is greater than 6.70. In addition, the pKi in series [1] (setting [5]) was greater than 6.70.

With `Cc1cc(=O)n(CC(F)(F)F)cc1-c1ccc2c(c1)COC1(CCN(C3CCC3)CC1)O2` [Example 755], the melting point was in the range of 60 to 62 °C. Besides, the pKi on human H3 receptor (setting [4]) is greater than 6.70. In addition, the pKi in series [1] (setting [5]) is greater than 6.70.

In turn, `CN(C)C(=O)c1cccc(COc2ccc3c(c2)CCC2(CCN(C4CCC4)CC2)O3)c1` [Example 602] had a melting point of 183 to 185 °C. Besides, at human H3 receptor (setting [4]), the pKi is greater than 6.70. Moreover, the pKi in series [1] (setting [5]) was greater than 6.70.
